Results taken from patent US6867235B2, “Helianthrone derivatives as anti-cancer agents” (Yeda Research and Development Co. Ltd., priority 2000, dated 2005).

How the values were obtained:
[1] = tested on: U251 human glioblastoma cells; assay type: cell-based; conditions: U251, complete darkness, exposure at least 72 hours, 0.1-20 μM
Description: (§1) Human HL-60 leukemic cells were grown in RPMI-1640 supplemented with 15% fetal calf serum, […] and 100 units/ml penicillin-streptomycin. Human erythroleukemia K-562 cells (derived from a chronic myeloid leukemia pateient) were grown in the same medium supplemented with 10% fetal calf serum. These cells and the human U251 glioblastoma, U87MG glioblastoma and LAN5 neuroblastoma cells used in the experiments are available from the ATCC. All cell lines were cultured in a humidified 5% CO2/95% air atmosphere at 37° C.
(§2) Cell viability was monitored by the MTT assay which measures reduction of 3-(4,5-dimethylthiazol-2-yl)-2,5-diphenyl tetrazolium bromide to formasan by mitochondria of viable cells as described in Mossman, T., J. Immunogen., 21, 235-248 (1983). The cells are incubated with MTT for four hours at 37° C. and analyzed in an ELISA reader at 560 nm. The optical density of formasan generated by untreated cell cultures (O.D. control) is defined as one MTT unit. The number of MTT units in culture samples undergoing treatments is calculated as the ratio (O.D.sample−O.D.blank)/O.D.control).
Three human malignant cell lines were evaluated to sensitivity to dimethyl TMH in vitro. […] The medium was aspirated, the adherent monolayer was washed with phosphate-buffered saline, and cell viability was monitored by the MTI assay. […]

LAN5 neuroblastoma cells = assay: MTT cell viability in complete darkness, LAN5 cells; assay type: cell-based, human; conditions: exposure at least 72 hours, 0.1-20 μM
Description: as §1, §2
(§3) Three human malignant cell lines were evaluated to sensitivity to dimethyl TMH in vitro. […] The medium was aspirated, the adherent monolayer was washed with phosphate-buffered saline, and cell viability was monitored by the MTI assay.

U87MG glioblastoma cells = assay: MTT cell viability in complete darkness, U87MG cells; assay type: cell-based, human
Description: as §1, §2, §3

[2] = tested on: human peripheral blood lymphocytes (PBL); assay: MTT viability of primary peripheral blood lymphocytes in the dark and with light; assay type: cell-based; conditions: 72 hours
Description: as §2
Human peripheral blood lymphocytes (PBL) are non-proliferating cells in the absence of mitogenic stimuli. The effects of different doses of dimethyl-TMH on PBL were examined in the presence or absence of irradiation with polychromatic white light. PBL (post-mitotic) were plated (2×10^5 cells/well) in two separate round bottom 96-well plates (in triplicates). Dimethyl-TMH was added to the cultures. One plate was kept in the dark, and the other was exposed to polychromatic white light at a fluence rate of 8 mW/cm^2 for 30 min (a total of 14.4 J/cm^2). Both plates were then cultured at 37° C., 5% CO2 for 72 hours and cell viability was assayed by the MTT assay.

[3] = tested on: U251 human glioblastoma cells; assay: Cell cycle and DNA content analysis (propidium iodide, FACS) in the dark; assay type: cell-based; conditions: for cell cycle arrest: U251, dark
From the text: The cells were then stained with propidium iodide, washed with PBS and analyzed in a fluorescence activated cell sorter (FACS). A computer program arranged the DNA-related fluorescence as follows: the minimal amount of fluorescence is considered to be one whole set of cellular DNA related to the resting G1 phase. A double amount of fluorescence is considered to be G2 phase, in which the whole genome is duplicated following complete DNA synthesis, and the in-between amounts are considered to be the DNA synthetic S-phase, in which the total DNA synthesis is not yet completed.

[4] = tested on: SQ2 anaplastic squamous cell carcinoma; assay: Tumor foci in BALB/c mice bearing SQ2 squamous cell carcinoma treated with dimethyl-TMH; assay type: in vivo; conditions: for number of tumor foci / multifocal spread of the tumor: SQ2 tumor-bearing mice versus control
Description: The effective cytocidal activity of dimethyl-TMH in vitro encouraged the evaluation of its safety and anti-tumoral efficacy profile in tumor-bearing mice. Experiments were carried out in mice bearing tumors derived from the SQ2 highly metastatic anaplastic squamous cell carcinoma (SCC) line. This tumor develops as multifocal centers that spread at the vicinity of the primary tumor and metastases develop approximately two months after cell inoculation. Treatments with 300-600 μM dimethyl-TMH/mouse, administered twice or three-times a week were initiated when the tumors reached 5-7 mm in diameter.
When the primary tumors reached a diameter of 5 mm, therapy with 300 μM dimethyl-TMH/mouse, administered intraperitoneally twice per week, was initiated. Three weeks after the initiation of therapy, the number of tumor foci, which have developed at the primary tumor site, was recorded.

[5] = tested on: SQ2 highly metastatic anaplastic squamous cell carcinoma; assay: Survival of SQ2 squamous cell carcinoma-bearing mice treated with dimethyl-TMH; assay type: in vivo, BALB/c mice
Description: In another experiment, BALB/c mice were inoculated with 5×10^5 cells of the SQ2 highly metastatic anaplastic squamous cell carcinoma line, intradermally in shaved backs. When the primary tumors reached a diameter of 3-4 mm, i.p. administration of dimethyl TMH 200 μg/mouse (400 μM/mouse) was initiated on day 7 after tumor cell inoculation and then administered twice weekly to the tumor-bearing mice 2× per week for six weeks (total of 12 doses). Animal survival was then followed. […] This appears to be the result of reduced metastatic growth as evident from Table 1 in Example 4 above.

[6] = Tolerability of intraperitoneal administration in mice; assay type: in vivo, BALB/c mice; conditions: i.p. on a daily basis for one week
[7] = tested on: human malignant glioblastoma cell lines; assay: Photodynamic induction of cell death in glioblastoma cell lines with light; assay type: cell-based
Description: Cell killing by dimethyl-TMH occurred at doses in which hypericin had no effect on the cultures. […] The mechanisms that operate in the dark were very different from those that mediate light-induced photosensitization. In the dark, cell death occurs approximately four days after the compound is administered, whereas the cells died within 2-3 hours with light.
Photodynamic (PD) stress is the level of phototoxicity inflicted upon target cells by photodynamic compounds and exposure to light. Light irradiation was performed from a fluorescent source of two parallel 40 Watts tubes placed at a fixed distance of 16 cm and measured to emit an incidence of 4 mWatt/cm^2. Light intensities were quantitated using the IL 1350 Radiometer/Photometer, from International Light Inc., U.S.A.

tumor neovascularization = assay: Tumor neovascularization in tumor-bearing mice; conditions: mouse, in vivo
From the text: These hitherto unknown attributes were detected while studying the effects of hypericin and of helianthrone derivatives on breast adenocarcinoma tumors induced in mice with the DA-3^HI cell line and on murine anaplastic squamous carcinoma tumors induced with the SQ-2 cell line. Both are highly metastatic tumors and if surgically resected after having reached a diameter larger than 5 mm, the mice will go on to develop metastases in the lungs and liver. The metastases cause death of the animals within approximately two months following surgery.
By preventing development of new blood vessels to supply a growing metastasis, the rapidly growing metastatic focus is deprived of nutrients and oxygen for its rapidly multiplying cells and the lesion degenerates.

[8] = tested on: anaplastic squamous cell carcinoma tumors; assay: Tumor growth in mice bearing anaplastic squamous cell carcinoma tumors; assay type: in vivo, BALB/c mice; conditions: 200 μg/mouse every other day
[9] = 300 μM/mouse i.p. twice per week
[10] = 21 days after start of therapy, 300 μM/mouse i.p. twice per week

SMILES: COc1cc(OC)c2c3c(OC)cc(OC)c4c(=O)c5ccc(C)cc5c(c43)c3c4cc(C)ccc4c(=O)c1c23 [dimethyl-TMH, 10,13-dimethyl-1,3,4,6-tetramethoxy-helianthrone]
- cell viability (MTT) [1]: Cell viability was lost
- cell viability (MTT) (LAN5 neuroblastoma cells): Cell viability was lost
- cell viability (MTT) (U87MG glioblastoma cells; complete darkness, exposure at least 72 hours, 0.1-20 μM): Cell viability was lost
- loss of cell viability compared with hypericin (U87MG glioblastoma cells; in the dark): more effective than the treatment with hypericin
- effect on cell viability ([2]; normal non-proliferating PBL, absence of light irradiation): no effect
- LD50 (cell death after photosensitization) ([2]; polychromatic white light 8 mW/cm2 for 30 min (14.4 J/cm2), MTT): approximately 0.65 μM
- proportion of cells in the S-phase with duration of exposure ([3]; 10 μM, 24, 48, 72 hours): increased steadily
- cell cycle arrest ([3]; 10 μM): arrest at mid-S phase
- cell cycle arrest ([3]; 20 μM): exclusive arrest at the S phase
- phases of the cell replication cycle at which malignant cells are arrested ([3]; glioblastoma and neuroblastoma cells): mid S and G2 phases
- toxicity of therapeutic doses to the animals [4, 9]: non-toxic
- treated mice in which the primary tumors hardened and fell off [4, 9]: 5
- number of mice with 1 focus [4, 10]: 8
- number of mice with 2 foci [4, 10]: 1
- number of mice with 3 foci [4, 10]: 0
- number of mice with 4 foci [4, 10]: 0
- number of tumor foci / multifocal spread of the tumor [4]: considerably reduced
- number of tumor foci / multifocal spread of the tumor ([4]; listed as dimethyl TMH): completely inhibited
- prolongation of animal survival compared to untreated controls ([5]; 200 μg/mouse (400 μM/mouse) i.p. twice weekly for six weeks (12 doses)): approximately 40.3%
- primary tumor growth during the treatment ([5]; 200 μg/mouse i.p. twice weekly for six weeks): continued to grow
- adverse effect on the animals [6]: no adverse effect
- photodynamic induction of cell death compared with hypericin ([7]; treatment in conjunction with light): more potent than hypericin
- time to cell death ([7]; with light): 2 to 3 h
- neovascularization of tumors (tumor neovascularization): prevented neovascularization
- tumor growth compared to untreated tumor-bearing control mice [8]: significant inhibition of tumor growth
